{"source": "patent US9714250B2", "about": "“Crystalline forms of temozolomide and the method for preparing same” (Jiangsu Tasly Diyi Pharmaceutical Co., Ltd., priority 2013, dated 2017)", "origin": "cited, not measured here", "details": "heated to approximately 30° C.; in US20050187206; cited from earlier work"}
{"smiles": "Cn1nnc2c(C(N)=O)ncn2c1=O", "note": "[Form I, Temozolomide]", "values": [{"measurement": "Crystalline form transformation on heating", "result": "transformed into crystalline Form II"}]}
